These results are taken from patent publication US20100317709A1, “SPHINGOSINE-1-PHOSPHATE (S1P) RECEPTOR COMPOUNDS” (UNIVERSITEIT LEIDEN, priority 2007, published 2010).

For one data set, the target named is S1P3 receptor (Homo sapiens, UniProt Q99500). The experiment in a line: cAMP accumulation assay at the S1P3 receptor (Lance cAMP 384 kit). The class given is cell-based. The note with it: for EC50: N.D. = not defined because the potency and/or the efficacy were too low, read-out: pEC50 S1P3 (converted); for efficacy (α) S1P3: S1P = 1.00, N.D. = not defined because the potency and/or the efficacy were too low. An excerpt:
(§1) A primary function of certain cell surface receptors is to activate second messenger systems upon binding of an agonist. The S1P1 receptor selectively binds to and activates Gi-proteins and activation of this receptor subtype thus results in the inhibition of cAMP production. The S1P2 receptor predominantly activates Gq-proteins finally resulting in increases in intracellular calcium. S1P3 receptor activation results in both, an inhibition of cAMP production and an increase in intracellular calcium, via the activation of Gi- and Gq-proteins
(§2) Accordingly, we performed measurements on cAMP accumulation (Lance cAMP 384 kit, Perkin Elmer, Zaventem, Belgium) and measurements on changes in intracellular calcium (for method see Jongsma et al., 2006) (8).
Background: Cyclic AMP is a second messenger, typically raised through Gs and lowered through Gi signalling.

For a further data set, the target named is S1P1 receptor (Homo sapiens, UniProt P21453). The experiment in a line: cAMP accumulation assay at the S1P1 receptor (Lance cAMP 384 kit). The class given is cell-based. The note with it: for EC50: N.D. = not defined because the potency and/or the efficacy were too low, read-out: pEC50 S1P1 (converted); for efficacy (α) S1P1: S1P = 1.00, N.D. = not defined because the potency and/or the efficacy were too low.
S1P1 receptor, sequence (P21453 whole entry): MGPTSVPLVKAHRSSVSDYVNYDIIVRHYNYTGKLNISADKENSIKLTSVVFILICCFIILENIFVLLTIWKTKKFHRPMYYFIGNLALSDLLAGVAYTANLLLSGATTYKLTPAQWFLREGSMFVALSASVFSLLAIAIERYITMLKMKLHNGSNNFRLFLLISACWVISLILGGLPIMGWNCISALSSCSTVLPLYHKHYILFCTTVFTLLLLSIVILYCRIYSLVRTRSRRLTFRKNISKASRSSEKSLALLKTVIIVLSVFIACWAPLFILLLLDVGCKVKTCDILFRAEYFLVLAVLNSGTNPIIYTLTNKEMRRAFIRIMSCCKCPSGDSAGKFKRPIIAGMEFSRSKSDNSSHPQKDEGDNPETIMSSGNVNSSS
Description: as §1, §2

S1P3 receptor, sequence (Q99500 whole entry): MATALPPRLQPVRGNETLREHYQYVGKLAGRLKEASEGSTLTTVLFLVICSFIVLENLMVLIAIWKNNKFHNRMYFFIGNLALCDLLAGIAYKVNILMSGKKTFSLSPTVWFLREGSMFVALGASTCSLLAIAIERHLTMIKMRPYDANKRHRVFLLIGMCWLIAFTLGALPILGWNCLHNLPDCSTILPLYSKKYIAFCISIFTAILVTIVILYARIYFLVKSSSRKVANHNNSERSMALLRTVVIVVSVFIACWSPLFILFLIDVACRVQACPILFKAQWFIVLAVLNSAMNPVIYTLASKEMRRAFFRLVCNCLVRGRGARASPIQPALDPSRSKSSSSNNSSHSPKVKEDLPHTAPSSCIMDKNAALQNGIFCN

In turn, `CCc1c(C)sc(N)c1C(=O)c1ccccc1` [LUF5464, (2-Amino-4-ethyl-5-methyl-3-thienyl)(phenyl)methanone] had a melting point of 129 to 131 °C. On S1P3 receptor, the EC50 was > 10000 nM and the “efficacy (α) S1P3” value is on record as “+/−1 (n = 3)”.
Turning to `Nc1sc2c(c1C(=O)c1ccccc1)CCCC2` [LUF5465, (2-Amino-4,5,6,7-tetrahydrobenzo[b]thiophen-3-yl)(phenyl)methanone], at S1P3 receptor, the EC50 is > 10000 nM and the “efficacy (α) S1P3” value is >0.5.
Consider `CCc1c(C)sc(N)c1C(=O)c1cccc(C(F)(F)F)c1` [LUF5468, (2-Amino-4-ethyl-5-methyl-3-thienyl)[3-(trifluoromethyl)phenyl]methanone], for which the melting point fell in the range of 100 to 101 °C.
In turn, `Nc1sc2c(c1C(=O)c1cccc(C(F)(F)F)c1)CCCC2` [LUF5469, (2-Amino-4,5,6,7-tetrahydrobenzo[b]thiophen-3-yl)[3-(trifluoromethyl)phenyl]methanone] came in with a melting point of 122 to 123 °C. Also, at S1P3 receptor, the EC50 was 1290 nM and the “efficacy (α) S1P3” value is 1.07.
In the case of `Cc1sc(N)c(C(=O)c2cccc(Cl)c2)c1C` [LUF5471, (2-Amino-4,5-dimethyl-3-thienyl)(3-chlorophenyl)methanone], the melting point lay within 114 to 116 °C.
Still for that read-out and setting: next, `CCc1c(C)sc(N)c1C(=O)c1cccc(Cl)c1` [LUF5472, (2-Amino-4-ethyl-5-methyl-3-thienyl)(3-chlorophenyl)methanone]: 99 to 102 °C.
Take `Nc1sc2c(c1C(=O)c1cccc(Cl)c1)CCCC2` [LUF5473, (2-Amino-4,5,6,7-tetrahydrobenzo[b]thiophen-3-yl)(3-chlorophenyl)methanone]: the melting point is 114 to 115 °C. Besides, at S1P3 receptor, the EC50 was 1860 nM and the “efficacy (α) S1P3” value was found to be 1.07. Also, at S1P1 receptor, the EC50 is 1000 nM and the “efficacy (α) S1P1” value came out at 0.40.
As to `Nc1sc2c(c1C(=O)c1ccc(Cl)cc1)CCCC2` [LUF5480, (2-Amino-4,5,6,7-tetrahydrobenzo[b]thiophen-3-yl)(4-chlorophenyl)methanone], on S1P3 receptor, the EC50 is 6760 nM and the “efficacy (α) S1P3” value is reported as 0.37.
`CCc1c(C)sc(N)c1C(=O)c1ccc(Cl)cc1` [LUF5482, (2-Amino-4-ethyl-5-methyl-3-thienyl)(4-chlorophenyl)methanone] came in with a melting point of 108 to 110 °C.
On to `Nc1sc2c(c1C(=O)c1ccc(Cl)c(Cl)c1)CCCC2` [LUF5484, (2-Amino-4,5,6,7-tetrahydrobenzo[b]thiophen-3-yl)(3,4-dichlorophenyl)methanone], for which the melting point is 152 to 154 °C. Moreover, at S1P3 receptor, the EC50 was > 10000 nM and the “efficacy (α) S1P3” value is given as <0.5 (n = 2).
On to `Cc1sc(N)c(C(=O)c2ccc(Cl)cc2)c1C` [LUF5487, (2-Amino-4,5-dimethyl-3-thienyl)(4-chlorophenyl)methanone], for which the melting point lay within 123 to 125 °C.
The same measure, in the same setting: next, `Nc1sc(-c2ccccc2)cc1C(=O)c1ccc(Cl)cc1` [LUF5488, (2-Amino-5-phenyl-3-thienyl)(4-chlorophenyl)methanone]: 173 to 175 °C.
`Nc1sc2c(c1C(=O)c1ccc(C(F)(F)F)cc1)CCCC2` [LUF5489, (2-Amino-4,5,6,7-tetrahydrobenzo[b]thiophen-3-yl)[4-(trifluoromethyl)phenyl]methanone]: the melting point lay in the range of 145 to 147 °C. The EC50 at S1P3 receptor was > 10000 nM.
Molecule `Nc1sc2c(c1C(=O)c1ccc(Br)cc1)CCCC2` [LUF5490, (2-Amino-4,5,6,7-tetrahydrobenzo[b]thiophen-3-yl)(4-bromophenyl)methanone] gave a melting point of 152 to 153 °C. In addition, at S1P3 receptor, the EC50 was 1150 nM and the “efficacy (α) S1P3” value stood at 0.41.
Consider `COC(=O)c1ccc(C(=O)c2c(N)sc3c2CCCC3)cc1` [LUF5492, Methyl 4[(2-Amino-4,5,6,7-tetrahydrobenzo[b]thiophen-3-yl)-carbonyl]benzoate], for which the melting point lay within 159 to 160 °C. At S1P3 receptor, the EC50 is 933 nM and the “efficacy (α) S1P3” value was found to be 0.25.
The molecule `Nc1sc2c(c1C(=O)c1ccc(C(=O)O)cc1)CCCC2` [LUF5493, 4-[(2-Amino-4,5,6,7-tetrahydrobenzo[b]thiophen-3-yl)-carbonyl]benzoic acid] registered a melting point of 232 to 233 °C.
`Nc1sc(CN2C(=O)c3ccccc3C2=O)cc1C(=O)c1cccc(C(F)(F)F)c1` [LUF5496, 2-({5-Amino-4-[3-(trifluoromethyl)benzoyl]-2-thienyl}methyl)-1,3-isoindolinedione] returned a melting point of 199 to 200 °C. In addition, the EC50 on S1P3 receptor is > 10000 nM.
For `Nc1sc2c(c1C(=O)c1ccc([N+](=O)[O-])cc1)CCCC2` [LUF5526, (2-Amino-4,5,6,7-tetrahydrobenzo[b]thiophen-3-yl)(4-nitrophenyl)methanone], the melting point fell in the range of 202 to 204 °C.
The molecule `Cc1ccc(C(=O)c2c(N)sc3c2CCCC3)cc1` [LUF5527, (2-Amino-4,5,6,7-tetrahydrobenzo[b]thiophen-3-yl)(4-methylphenyl)methanone] returned a melting point of 155 to 156 °C. On S1P3 receptor, the EC50 was 3090 nM and the “efficacy (α) S1P3” value was 0.96.
The corresponding values for `Nc1sc2c(c1C(=O)c1ccc(I)cc1)CCCC2` [LUF5528, (2-Amino-4,5,6,7-tetrahydrobenzo[b]thiophen-3-yl)(4-iodophenyl)methanone] are 150 to 152 °C, > 10000 nM and <0.5 (n = 2).
Turning to `Nc1sc2c(c1C(=O)c1ccccc1Cl)CCCC2` [LUF5532, (2-Amino-4,5,6,7-tetrahydrobenzo[b]thiophen-3-yl)(2-chlorophenyl)methanone], the melting point was in the range of 145 to 147 °C. For the same molecule, on S1P3 receptor, the EC50 was 4170 nM and the “efficacy (α) S1P3” value is 0.71. At S1P1 receptor, the EC50 is 4170 nM and the “efficacy (α) S1P1” value turned out to be 0.63.
Regarding `Nc1sc2c(c1C(=O)c1cccc(I)c1)CCCC2` [LUF5533, (2-Amino-4,5,6,7-tetrahydrobenzo[b]thiophen-3-yl)(3-iodophenyl)methanone], the melting point was in the range of 160 to 162 °C. Moreover, on S1P3 receptor, the EC50 is 1260 nM and the “efficacy (α) S1P3” value is 0.94. Also, on S1P1 receptor, the EC50 was 1380 nM and the “efficacy (α) S1P1” value is 0.46.
As to `CCCCCCCCCCCCC/C=C/[C@@H](O)[C@@H](N)COP(=O)(O)O` [S1P, sphingosine-1-phosphate], on S1P3 receptor, the EC50 is 0.347 nM and the “efficacy (α) S1P3” value was 1.00. On S1P1 receptor, the EC50 is 0.138 nM and the “efficacy (α) S1P1” value is reported as 1.00.

One may read the melting point as the temperature of the solid-liquid transition.
